Measurements published in patent US8273890B2 (4SC AG, priority 2007, dated 2012).

What follows are molecules tested against T1, recombinant Plk1 protein (Homo sapiens, UniProt P53350) (assay: Plk1 kinase activity inhibition assay (33P-ATP, alpha casein substrate, flash plates)). Conditions: enzymatic assay, 100 nM Li-ATP, 80 minutes at 30° C.
T1 construct: histidine tag (N); made in house; host or cells: SF9 insect cells
Format: biochemical
Description: The inhibition of Plk1 kinase activity can be measured using recombinant Plk1 protein expressed as an N-terminally histidine-tagged protein in SF9 insect cells and alpha casein as substrate. The Plk1 assay is run in 96 well plates by incubating 50 to 100 ng per well recombinant Plk1, 500 ng per well alpha casein (Sigma, # C-6780) as substrate, 10 μl of compound of invention (test compounds were dissolved as 20 mM solutions in dimethylsulfoxide (DMSO) and subsequently diluted), and 100 nM Li-ATP (including ^33P-ATP) in 100 μl of reaction buffer ([…] HEPES, pH 7.5; 3 mM MgCl2; 3 mM MnCl2; 3 μM Na-Orthovanadat; 1 mM DTT; 1 μg/ml PEG 8000) for 80 minutes at 30° C. The reactions are terminated by adding 100 μl stopping buffer (2% H3PO4 for 5 minutes) and are washed 3 times with washing solution (0.9% NaCl). Determining ^33P incorporated into the protein substrate alpha casein, the detection is based on the adhesion of the phosphorylated protein to the surface of scintillator-coated flash plates (Perkin Elmer, USA; #SMP-200). Phosphorylation of alpha casein is measured by counting the radioactivity bound to the plate for 60 sec. using a plate reader (Perkin Elmer, USA; Wallac Microbeta). By this method, the IC50 value of the Plk1 inhibition is determined as described above.

T1 sequence (P53350 whole entry): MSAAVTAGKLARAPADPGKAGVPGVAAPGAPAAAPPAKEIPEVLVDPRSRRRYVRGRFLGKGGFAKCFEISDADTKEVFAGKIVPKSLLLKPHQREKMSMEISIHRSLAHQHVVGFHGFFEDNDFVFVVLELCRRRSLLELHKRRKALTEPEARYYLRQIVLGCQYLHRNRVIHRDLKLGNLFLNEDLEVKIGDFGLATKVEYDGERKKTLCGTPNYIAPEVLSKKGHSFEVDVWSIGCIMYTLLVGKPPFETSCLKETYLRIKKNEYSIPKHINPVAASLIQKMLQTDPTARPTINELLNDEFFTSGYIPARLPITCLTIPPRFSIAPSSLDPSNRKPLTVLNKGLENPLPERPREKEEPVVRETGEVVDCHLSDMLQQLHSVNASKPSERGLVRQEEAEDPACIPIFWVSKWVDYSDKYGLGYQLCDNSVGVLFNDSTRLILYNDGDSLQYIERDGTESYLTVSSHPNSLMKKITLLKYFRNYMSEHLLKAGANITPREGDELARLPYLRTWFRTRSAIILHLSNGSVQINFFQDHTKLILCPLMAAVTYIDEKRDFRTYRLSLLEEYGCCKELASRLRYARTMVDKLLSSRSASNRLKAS

IC50 [nM] | Structure (SMILES)
10 to 100 | C[C@@H](Oc1cc(-n2cnc3cnc(CN4CCN(c5ccncc5)CC4)cc32)sc1C(N)=O)c1ccccc1C(F)(F)F [Example 75, 5-{6-[(4-pyridin-4-ylpiperazin-1-yl)methyl]-1H-imidazo[4,5-c]pyridin-1-yl}-3-{(1R)-1-[2-(trifluoromethyl)phenyl]ethoxy}thiophene-2-carboxamide]
100 to 1000 | COCCN1CCN(Cc2cc3ncn(-c4cc(OC(C)c5ccccc5F)c(C(N)=O)s4)c3cn2)CC1 (centres unmarked) [Example 157, 3-[-1-(2-fluorophenyl)ethoxy]-5-(6-{[4-(2-methoxyethyl)piperazin-1-yl]methyl}-3H-imidazo[4,5-c]pyridin-3-yl)thiophene-2-carboxamide]
10 to 100 | COc1ccc2c(ncn2-c2cc(OCc3ccccc3C(F)(F)F)c(C(N)=O)s2)n1 [Example 23, 5-(5-methoxy-1H-imidazo[4,5-b]pyridin-1-yl)-3-{[2-(trifluoromethyl)benzyl]oxy}thiophene-2-carboxamide]
100 to 1000 | NC(=O)c1sc(-n2cnc3cnccc32)cc1OCc1ccc(C(F)(F)F)cc1 [Example 36, 5-(1H-imidazo[4,5-c]pyridin-1-yl)-3-{[4-(trifluoromethyl)benzyl]oxy}thiophene-2-carboxamide]
10 to 100 | C[C@@H](Oc1cc(-n2cnc3cnc(CN4CCN(CC(=O)N(C)c5ccccc5)CC4)cc32)sc1C(N)=O)c1ccccc1C(F)(F)F [Example 86, 5-{6-[(4-{2-[methyl(phenyl)amino]-2-oxoethyl}piperazin-1-yl)methyl]-1H-imidazo[4,5-c]pyridin-1-yl}-3-{(1R)-1-[2-(trifluoromethyl)phenyl]ethoxy}thiophene-2-carboxamide]
< 10 | C[C@@H](Oc1cc(-n2cnc3ccncc32)sc1C(N)=O)c1ccccc1Cl [Example 32, 3-[(1R)-1-(2-chlorophenyl)ethoxy]-5-(3H-imidazo[4,5-c]pyridin-3-yl)thiophene-2-carboxamide]
1000 to 10000 | CC(Oc1cc(-n2cnc3cc(CN4CCN(C(=O)c5ccccc5)CC4)ncc32)sc1C(N)=O)c1ccccc1F (centres unmarked) [Example 160, 5-{6-[(4-benzoylpiperazin-1-yl)methyl]3H-imidazo[4,5-c]pyridin-3-yl}-3-[-1-(2-fluorophenyl)ethoxy]thiophene-2-carboxamide]
10 to 100 | CC1CCN(Cc2cc3c(cn2)ncn3-c2cc(O[C@H](C)c3ccccc3C(F)(F)F)c(C(N)=O)s2)CC1 [Example 93, 5-{6-[(4-methylpiperidin-1-yl)methyl]-1H-imidazo[4,5-c]pyridin-1-yl}-3-{(1R)-1-[2-(trifluoromethyl)phenyl]ethoxy}thiophene-2-carboxamide]
1000 to 10000 | CC(Oc1cc(-n2cnc3cc(CN4CCOCC4)ncc32)sc1C(N)=O)c1ccccc1F (centres unmarked) [Example 158, 3-[-1-(2-fluorophenyl)ethoxy]-5-[6-(morpholin-4-ylmethyl)-3H-imidazo[4,5-c]pyridin-3-yl]thiophene-2-carboxamide]
10 to 100 | CCC(Oc1cc(-n2cnc3cnc(CN4CCN(CCOC)CC4)cc32)sc1C(N)=O)c1ccccc1Cl (centres unmarked) [Example 139, 3-{[1-(2-chlorophenyl)propyl]oxy}-5-(6-{[4-(2-methoxyethyl)piperazin-1-yl]methyl}-1H-imidazo[4,5-c]pyridin-1-yl)thiophene-2-carboxamide]
< 10 | COc1ccc2ncn(-c3cc(OCc4ccccc4C(F)(F)F)c(C(N)=O)s3)c2n1 [Example 22, 5-(5-methoxy-3H-imidazo[4,5-b]pyridin-3-yl)-3-{[2-(trifluoromethyl)benzyl]oxy}thiophene-2-carboxamide]
100 to 1000 | CCOc1ccc(OCC)c(COc2cc(-n3cnc4cnc(CN5CCN(C)CC5)cc43)sc2C(N)=O)c1 [Example 155, 3-[(2,5-diethoxybenzyl)oxy]-5-{6-[(4-methylpiperazin-1-yl)methyl]-1H-imidazo[4,5-c]pyridin-1-yl}thiophene-2-carboxamide]
< 10 | CC(c1ccccc1)N1CCN(Cc2cc3c(cn2)ncn3-c2cc(O[C@H](C)c3ccccc3C(F)(F)F)c(C(N)=O)s2)CC1 (stereo partly drawn) [Example 119, 5-(6-{[4-(1-phenylethyl)piperazin-1-yl]methyl}-1H-imidazo[4,5-c]pyridin-1-yl)-3-{(1R)-1-[2-(trifluoromethyl)phenyl]ethoxy}thiophene-2-carboxamide]
< 10 | C[C@@H](Oc1cc(-n2cnc3cnc(CN4CCC(O)C4)cc32)sc1C(N)=O)c1ccccc1C(F)(F)F (stereo partly drawn) [Example 94, 5-{6-[(3-hydroxypyrrolidin-1-yl)methyl]-1H-imidazo[4,5-c]pyridin-1-yl}-3-{(1R)-1-[2-(trifluoromethyl)phenyl]ethoxy}thiophene-2-carboxamide]
< 10 | C[C@@H](Oc1cc(-n2cnc3cnc(CN4CCN(C)CC4)cc32)sc1C(N)=O)c1ccccc1C(F)(F)F [Example 24, 5-{6-[(4-methylpiperazin-1-yl)methyl]-1H-imidazo[4,5-c]pyridin-1-yl}-3-{(1R)-1-[2-(trifluoromethyl)phenyl]ethoxy}thiophene-2-carboxamide]
< 10 | C[C@@H](Oc1cc(-n2cnc3cnc(CN4CCN(CCO)CC4)cc32)sc1C(N)=O)c1ccccc1C(F)(F)F [Example 61, 5-(6-{[4-(2-hydroxyethyl)piperazin-1-yl]methyl}-1H-imidazo[4,5-c]pyridin-1-yl)-3-{(1R)-1-[2-(trifluoromethyl)phenyl]ethoxy}thiophene-2-carboxamide]
10 to 100 | NC(=O)c1sc(-n2cnc3ccncc32)cc1OCc1ccccc1F [Example 31, 3-[(2-fluorobenzyl)oxy]-5-(3H-imidazo[4,5-c]pyridin-3-yl)thiophene-2-carboxamide]
10 to 100 | CCC(Oc1cc(-n2cnc3cnc(CN4CCN(CCO)CC4)cc32)sc1C(N)=O)c1ccccc1Cl (centres unmarked) [Example 138, 3-{[1-(2-chlorophenyl)propyl]oxy}-5-(6-{[4-(2-hydroxyethyl)piperazin-1-yl]methyl}-1H-imidazo[4,5-c]pyridin-1-yl)thiophene-2-carboxamide]
100 to 1000 | NC(=O)c1sc(-n2cnc3ccncc32)cc1OCc1ccc(C(F)(F)F)cc1 [Example 28, 5-(3H-imidazo[4,5-c]pyridin-3-yl)-3-{[4-(trifluoromethyl)benzyl]oxy}thiophene-2-carboxamide]
< 10 | CC(C)CN1CCN(Cc2cc3c(cn2)ncn3-c2cc(O[C@H](C)c3ccccc3C(F)(F)F)c(C(N)=O)s2)CC1 [Example 120, 5-{6-[(4-isobutylpiperazin-1-yl)methyl]-1H-imidazo[4,5-c]pyridin-1-yl}-3-{(1R)-1-[2-(trifluoromethyl)phenyl]ethoxy}thiophene-2-carboxamide]
10 to 100 | CCC(Oc1cc(-n2cnc3cnc(CN4CCN(C(=O)N(C)C)CC4)cc32)sc1C(N)=O)c1ccccc1Cl (centres unmarked) [Example 137, 4-{[1-(5-carbamoyl-4-{[1-(2-chlorophenyl)propyl]oxy}-2-thienyl)-1H-imidazo[4,5-c]pyridin-6-yl]methyl}-N,N-dimethylpiperazine-1-carboxamide]
< 10 | CCC(Oc1cc(-n2cnc3cnc(CN4CCN(CC)CC4)cc32)sc1C(N)=O)c1ccccc1Cl (centres unmarked) [Example 142]
100 to 1000 | COc1cc2c(ncn2-c2cc(OCc3ccccc3C(F)(F)F)c(C(N)=O)s2)nc1OC [Example 21A, 5-(5,6-Dimethoxy-1H-imidazo[4,5-b]pyridin-1-yl)-3-{[2-(trifluoromethyl)benzyl]oxy}thiophene-2-carboxamide]
< 10 | CC(Oc1cc(-n2cnc3cnc(CO)cc32)sc1C(N)=O)c1ccccc1F (centres unmarked) [Example 57]
< 10 | C[C@@H](Oc1cc(-n2cnc3cnc(CN4CCCN(C)CC4)cc32)sc1C(N)=O)c1ccccc1Cl [Example 129, 3-[(1R)-1-(2-chlorophenyl)ethoxy]-5-{6-[(4-methyl-1,4-diazepan-1-yl)methyl]-1H-imidazo[4,5-c]pyridin-1-yl}thiophene-2-carboxamide]
< 10 | NC(=O)c1sc(-n2cnc3cnc(CO)cc32)cc1O[C@@H](CO)c1ccccc1Cl [Example 146, 3-[(1R)-1-(2-chlorophenyl)-2-hydroxyethoxy]-5-[6-(hydroxymethyl)-1H-imidazo[4,5-c]pyridin-1-yl]thiophene-2-carboxamide]
10 to 100 | C[C@@H](Oc1cc(-n2cnc3cnc(CNC(C)(C)C)cc32)sc1C(N)=O)c1ccccc1C(F)(F)F [Example 114, 5-{6-[(tert-butylamino)methyl]-1H-imidazo[4,5-c]pyridin-1-yl}-3-{(1R)-1-[2-(trifluoromethyl)phenyl]ethoxy}thiophene-2-carboxamide]
10 to 100 | CCC(Oc1cc(-n2cnc3cnc(CN4CCN(C5CC5)CC4)cc32)sc1C(N)=O)c1ccccc1Cl (centres unmarked) [Example 140, 3-{[1-(2-chlorophenyl)propyl]oxy}-5-{6-[(4-cyclopropylpiperazin-1-yl)methyl]-1H-imidazo[4,5-c]pyridin-1-yl}thiophene-2-carboxamide]
10 to 100 | NC(=O)c1sc(-n2cnc3cccnc32)cc1OCc1ccccc1C(F)(F)F [Example 19, 5-(3H-Imidazo[4,5-b]pyridin-3-yl)-3-{[2-(trifluoromethyl)benzyl]oxy}thio-phene-2-carboxamide]
